Experimental data reported in paper PMC11467779, “New anti-ovarian cancer quinolone derivatives acting by modulating microRNA processing machinery” (RSC Medicinal Chemistry, 2024).
“And” between values parts separate entries of the source, which are not always exact repeats. Equal values may be shown once.

Columns and labels:
hTopII = target: T1, hTopII (Homo sapiens, UniProt P11388); experiment: Detection of hTOP2α cleavage complexes (cleavage assay); format: cell-based; details: 100 μM
T1 construct: endogenous in cells
T1 sequence (P11388 whole entry): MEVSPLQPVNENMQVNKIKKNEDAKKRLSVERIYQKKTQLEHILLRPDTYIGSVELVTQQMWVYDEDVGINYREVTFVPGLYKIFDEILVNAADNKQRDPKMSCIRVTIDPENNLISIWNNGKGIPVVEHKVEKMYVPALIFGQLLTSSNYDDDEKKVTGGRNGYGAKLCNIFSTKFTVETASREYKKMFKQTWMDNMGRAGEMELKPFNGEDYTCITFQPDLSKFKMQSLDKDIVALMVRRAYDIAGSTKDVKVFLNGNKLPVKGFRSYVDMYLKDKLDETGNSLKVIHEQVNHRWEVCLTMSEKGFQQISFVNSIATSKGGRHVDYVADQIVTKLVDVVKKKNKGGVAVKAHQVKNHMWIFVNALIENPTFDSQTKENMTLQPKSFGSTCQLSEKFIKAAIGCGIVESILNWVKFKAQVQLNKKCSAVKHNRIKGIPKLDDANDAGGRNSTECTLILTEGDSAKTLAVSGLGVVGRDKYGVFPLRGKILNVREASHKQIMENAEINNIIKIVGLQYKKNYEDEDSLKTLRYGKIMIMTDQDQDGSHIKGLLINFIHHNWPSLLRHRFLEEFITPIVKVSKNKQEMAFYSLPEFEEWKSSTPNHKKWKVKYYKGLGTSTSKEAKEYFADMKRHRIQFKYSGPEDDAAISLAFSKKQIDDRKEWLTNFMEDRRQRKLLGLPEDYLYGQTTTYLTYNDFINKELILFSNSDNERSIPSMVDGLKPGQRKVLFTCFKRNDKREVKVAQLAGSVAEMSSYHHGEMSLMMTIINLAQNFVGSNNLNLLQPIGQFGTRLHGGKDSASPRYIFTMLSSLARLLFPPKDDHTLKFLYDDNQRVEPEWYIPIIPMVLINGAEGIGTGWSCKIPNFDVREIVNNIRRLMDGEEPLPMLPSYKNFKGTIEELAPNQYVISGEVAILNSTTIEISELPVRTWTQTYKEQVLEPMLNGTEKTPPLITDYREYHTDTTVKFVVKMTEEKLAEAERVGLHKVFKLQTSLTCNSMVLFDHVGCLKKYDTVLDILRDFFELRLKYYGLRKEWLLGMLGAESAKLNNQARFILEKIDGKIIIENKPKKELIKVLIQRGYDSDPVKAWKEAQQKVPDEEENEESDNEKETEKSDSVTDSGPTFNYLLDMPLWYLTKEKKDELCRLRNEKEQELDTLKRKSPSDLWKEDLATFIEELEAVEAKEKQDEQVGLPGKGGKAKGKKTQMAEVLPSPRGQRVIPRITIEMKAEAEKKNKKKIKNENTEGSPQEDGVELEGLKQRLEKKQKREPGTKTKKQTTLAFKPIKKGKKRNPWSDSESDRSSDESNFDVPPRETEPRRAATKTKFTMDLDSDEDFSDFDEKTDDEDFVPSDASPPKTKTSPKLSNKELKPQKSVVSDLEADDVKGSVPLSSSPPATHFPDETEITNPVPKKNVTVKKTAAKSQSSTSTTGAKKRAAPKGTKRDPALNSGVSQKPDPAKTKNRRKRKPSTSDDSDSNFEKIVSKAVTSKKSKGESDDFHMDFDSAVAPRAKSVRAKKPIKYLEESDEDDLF
Experimental: (§1) After compound treatments, 1 × 10^6 human cells in 35 mm dish per sample were washed with 1× phosphate-buffered saline (PBS) and lysed with 600 μL of DNAzol (Invitrogen), followed by precipitation with 300 μL of 200 proof ethanol. The nucleic acids were collected, washed with 75% ethanol, resuspended in 200 μL of TE buffer, and then heated at 65 °C for 15 min, followed by shearing with sonication (40% output for 10 s pulse and 10 s rest for four times). The samples were centrifuged at 15 000 rpm for 5 min at 4 °C, and the supernatant were collected. 1 μL of each sample was removed for spectrophotometric measurement of absorbance at 260 nm to quantitate DNA content (NanoDrop). 2 μg of each sample was subjected to slot-blot for immunoblotting using anti-hTOP1 antibody (BD Pharmingen, 556597) and anti-hTOP2α antibody (Santa Cruz biotechnology, 365916).[51]

[1] = Cytotoxicity against non-tumor Wi-38 cells (CC50, cell count); format: cell-based; details: human, Wi-38 cells (non-tumor), 50% cytotoxicity concentration, 72 hours of treatment
Experimental: (§2) SKOV-3, A2780 and A2780 CIS were cultured and maintained, as previously described,[50] at 37 °C in RPMI 1640 medium (Euroclone) supplemented with 10% fetal bovine serum (FBS; Euroclone), L-glutamine and penicillin/streptomycin (SIGMA-ALDRICH). OVCA433, HEK-293T, HeLa, HCCLM3, SK-Hep-1, MCF-7, A549 and HCT-116 cells were maintained in DMEM medium (Euroclone) containing 10% FBS (Euroclone), L-glutamine and penicillin/streptomycin (SIGMA-ALDRICH). Wi-38 cells were cultured in DMEM medium (Euroclone) supplemented with 10% FBS (Euroclone), L-glutamine and penicillin/streptomycin (SIGMA-ALDRICH), and 1% non-essential amino acids (NEAA; Euroclone). The cultures were maintained in a constant temperature incubator at 37 °C with 5% CO2. […] Once cell adhesion had been promoted, the compounds were added to the culture medium. After 72 hours of treatment, the cells were counted, and the data analyzed by linear regression. Each experiment was carried out three times in triplicate and three separate cell counts were made for each sample. […] Afterwards, the concentration range was narrowed to the relative value obtained in the first evaluation in order to obtain an accurate value.

SKOV-3 cell line = experiment: Antiproliferative effect against the SKOV-3 cell line (GI50, cell count); format: cell-based, human; details: for GI50: 50% cell growth inhibition, 72 hours of treatment, cell count, ND = activity not dose dependent
Experimental: as §2

hTopI = target: T2, hTopI (Homo sapiens, UniProt P11387); experiment: Detection of hTOP1 cleavage complexes (cleavage assay); format: cell-based; details: 100 μM
T2 construct: endogenous in cells
T2 sequence (P11387 whole entry): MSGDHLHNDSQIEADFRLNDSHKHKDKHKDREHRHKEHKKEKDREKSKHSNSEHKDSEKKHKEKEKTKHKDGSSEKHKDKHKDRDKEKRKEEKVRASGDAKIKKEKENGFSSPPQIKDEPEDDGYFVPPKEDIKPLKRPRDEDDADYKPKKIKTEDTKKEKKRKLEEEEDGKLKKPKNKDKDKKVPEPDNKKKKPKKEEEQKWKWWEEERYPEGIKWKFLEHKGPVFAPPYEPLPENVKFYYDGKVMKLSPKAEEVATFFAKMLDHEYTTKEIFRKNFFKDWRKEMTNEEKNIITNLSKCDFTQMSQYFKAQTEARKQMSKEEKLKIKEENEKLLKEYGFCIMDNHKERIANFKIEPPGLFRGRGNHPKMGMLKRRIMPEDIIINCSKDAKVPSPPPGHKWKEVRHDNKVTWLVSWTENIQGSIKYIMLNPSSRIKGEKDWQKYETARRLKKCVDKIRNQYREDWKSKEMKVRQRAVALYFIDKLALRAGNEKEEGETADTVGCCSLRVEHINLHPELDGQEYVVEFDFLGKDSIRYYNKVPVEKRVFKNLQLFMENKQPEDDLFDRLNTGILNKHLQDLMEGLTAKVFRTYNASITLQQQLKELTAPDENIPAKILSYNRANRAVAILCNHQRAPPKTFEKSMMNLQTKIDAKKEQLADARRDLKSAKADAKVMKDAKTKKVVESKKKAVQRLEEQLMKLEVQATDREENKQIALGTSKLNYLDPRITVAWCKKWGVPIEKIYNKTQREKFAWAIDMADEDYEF
Experimental: as §1

miR-21 = miR-21 expression in HeLa cells (qRT-PCR); format: cell-based, human; details: 50 μM, 6 hours
Experimental: Total RNA was extracted using the Direct-zol RNA MiniPrep kit (Zymo Research) with on-column DNase treatment, according to the manufacturer's instructions. Reverse transcription was carried out with SuperScript VILO cDNA Synthesis Kit (Life Technologies) and the cDNA samples were analyzed by qRT-PCR using PowerUp SYBR Green Master Mix (Thermo Fisher Scientific). For miR-21 expression analysis total RNA was retrotranscribed using miRCURY® LNA® RT Kit (Qiagen) and the cDNA was analyzed by using miRCURY® LNA® miRNA PCR Assay (Qiagen). The oligonucleotides used are the following: GAPDH_FW […]; GAPDH_REV […]; ATP5O_FW […]; ATP5O_REV […]; hsa-miR-21-5p miRCURY LNA miRNA PCR Assay (YP00204230); U6 snRNA (v2) miRCURY LNA miRNA PCR Assay (YP02119464).

miR-21-5p biogenesis = experiment: miR-21-5p luciferase reporter (psi-R21 / psi-CTRL) in HeLa cells; format: cell-based, human; details: 50 μM, 6 hours
Experimental: HeLa cells were transfected with 10 ng of psi-R21 or psi-CTRL using Lipofectamine™ 2000 (Thermo Fisher Scientific) and after 48 hours were treated with either enoxacin or 33 at 20 μM and 50 μM. After 6 hours Renilla luciferase (RLuc) and firefly luciferase (FLuc) activities were measured using the Dual-Luciferase® Reporter Assay System (Promega), following the manufacturer's instructions, and GloMax® Discover Microplate Reader (Promega).
The binding site for miR-21 was cloned into psiCHECK™-2 Vector (Promega), downstream the Renilla cDNA, by inverted PCR using the following oligonucleotides: 21MRE_FW […]; 21MRE_REV […]. The resulting construct was named psi-R21.

OVCA433 = experiment: Antiproliferative effect against OVCA433 (GI50); format: cell-based; details: Homo sapiens, 72 hours of treatment, cell count
Experimental: as §2

A2780 = experiment: Antiproliferative effect against A2780 (GI50); format: cell-based; details: Homo sapiens, 72 hours of treatment, cell count
Experimental: as §2

[2] = tested on: shRNA to siRNA maturation (GAPDH mRNA); experiment: RNAi enhancing activity (shRNA to siRNA maturation, GAPDH mRNA in HEK-293T_shGAPDH); format: cell-based, human; details: 50 μM, 48 hours
Experimental: HEK-293T_shSCR and HEK-293T_shGAPDH were treated with 50 μM of enoxacin and 33 for 48 hours before RNA extraction and expression analysis.
Lentiviral particles were produced by calcium phosphate transient transfection of HEK-293T cells with specific lentiviral plasmids (shGAPDH: TRCN0000445616 and shSCR: TRCN0000015937 from SIGMA-ALDRICH) together with the packaging plasmids (pLP1and pLP2) and the envelope plasmid pLP/VSVG. For each lentiviral plasmid one 150 mm plate of HEK293T cells was used for transfection. After 14–16 hours the medium was replaced with complete medium supplemented with 1 mM sodium butyrate (SIGMA-ALDRICH). The collection of medium containing lentiviral particles occurs 48 h and 72 h after transfection; complete medium supplemented with sodium butyrate was added after the first collection. […]
Total RNA was extracted using the Direct-zol RNA MiniPrep kit (Zymo Research) with on-column DNase treatment, according to the manufacturer's instructions. Reverse transcription was carried out with SuperScript VILO cDNA Synthesis Kit (Life Technologies) and the cDNA samples were analyzed by qRT-PCR using PowerUp SYBR Green Master Mix (Thermo Fisher Scientific). For miR-21 expression analysis total RNA was retrotranscribed using miRCURY® LNA® RT Kit (Qiagen) and the cDNA was analyzed by using miRCURY® LNA® miRNA PCR Assay (Qiagen). […]

[3] = tested on: several cancer cell lines; design: method as in PMID 21368194; details: wide panel of cancer cells; read-out: GI50 against several cancer cell lines; cited from earlier work
miRNA processing / RNAi = tested on: miRNA processing / RNAi; design: method as in PMID 18641635; details: cited from earlier work
[4] = tested on: cisplatin-resistant A2780 cells (A2780 CIS); experiment: Viable cells of cisplatin-resistant A2780 (A2780 CIS) treated with 33, cisplatin or both; format: cell-based, human; details: cisplatin 1 μM, 48 hours
Experimental: A2780 and SKOV-3 cells were treated with 50 μM of 33 for 72 h before RNA and protein extraction and expression analyses. A2780 and A2780 CIS were treated with 33 (30 μM) and/or cisplatin (1 μM, Sigma-Aldrich) for 48 hours while MCF-7, A549 and HCT-116 were treated with 33 (30 μM) for 72 hours. Total cell number and viability have been assessed using Trypan Blue Solution (Thermo Fisher Scientific) and Countess™ 3 Automated Cell Counter (Thermo Fisher Scientific).

SMILES | CC50 at 72 h [1] | GI50 (SKOV-3 cell line; Homo sapiens, SK-OV-3, 72 h) | also measured
Cc1c(N2CCc3ccccc3C2)c(N)cc2c(=O)c(C(=O)O)cn(C3CC3)c12 [Compound 5] | 38.5 ± 29 µM | 38 µM | trapping/inhibition of hTopII (cleavage assay) (hTopII): did not trap human topoisomerases; GI50 (SKOV-3 cell line): 37.7 ± 3.38 µM; GI50 SKOV-3, fold lower than enoxacin (SKOV-3 cell line; versus enoxacin): about 3 fold; trapping/inhibition of hTopI (cleavage assay) (hTopI): did not trap human topoisomerases
CCn1cc(C(=O)O)c(=O)c2cc(N)c(N3CCc4ccccc4C3)cc21 [Compound 16, 6-Amino-7-(3,4-dihydroisoquinolin-2(1H)-yl)-1-ethyl-4-oxo-1,4-dihydroquinoline-3-carboxylic acid] | 8.19 ± 14.3 µM | 5.44 ± 0.13 µM | –
Nc1cc2c(=O)c(C(=O)O)cn(C3CC3)c2cc1N1CCc2sccc2C1 [Compound 21, 6-Amino-1-cyclopropyl-7-(6,7-dihydrothieno[3,2-c]pyridin-5(4H)-yl)-4-oxo-1,4-dihydroquinoline-3-carboxylic acid] | 103 ± 15.5 µM | 23.7 ± 1.02 µM | –
CC1c2ccccc2CCN1c1cc2c(cc1N)c(=O)c(C(=O)O)cn2C1CC1 (centres unmarked) [Compound 22, 6-Amino-1-cyclopropyl-7-(1-methyl-3,4-dihydroisoquinolin-2(1H)-yl)-4-oxo-1,4-dihydroquinoline-3-carboxylic acid] | 59.9 ± 5.95 µM | 18.5 ± 1.71 µM | –
Nc1cc2c(=O)c(C(=O)O)cn(C3CC3)c2cc1N1CCC(c2ccccc2)CC1 [Compound 24, 6-Amino-1-cyclopropyl-4-oxo-7-(4-phenylpiperidin-1-yl)-1,4-dihydroquinoline-3-carboxylic acid] | 45 ± 13.4 µM | 9.19 ± 1.05 µM | –
CCN(Cc1ccccc1)c1cc2c(cc1N)c(=O)c(C(=O)O)cn2C1CC1 [Compound 25, 6-Amino-7-[benzyl(ethyl)amino]-1-cyclopropyl-4-oxo-1,4-dihydroquinoline-3-carboxylic acid] | 79.7 ± 11.8 µM | 16 ± 2.94 µM | –
CCN(Cc1ccccc1)c1nc2c(cc1F)c(=O)c(C(=O)O)cn2CC [Compound 29, 7-[Benzyl(ethyl)amino]-1-ethyl-6-fluoro-4-oxo-1,4-dihydro-1,8-naphthyridine-3-carboxylic acid] | 25.5 ± 11.5 µM | 16.2 ± 1.03 µM | –
CCn1cc(C(=O)O)c(=O)c2cc(F)c(N3CCC(c4ccccc4)CC3)nc21 [Compound 30, 1-Ethyl-6-fluoro-4-oxo-7-(4-phenylpiperidin-1-yl)-1,4-dihydro-1,8-naphthyridine-3-carboxylic acid] | 4.65 ± 5.96 µM | 8.34 ± 1.28 µM | –
CCn1cc(C(=O)O)c(=O)c2cc(F)c(N3CCc4ccccc4C3)c(C)c21 [Compound 31, 7-(3,4-Dihydroisoquinolin-2(1H)-yl)-1-ethyl-6-fluoro-8-methyl-4-oxo-1,4-dihydroquinoline-3-carboxylic acid] | 56.6 ± 37.4 µM | 14.9 ± 3.24 µM | –
Cc1c(N2CCc3ccccc3C2)c(F)cc2c(=O)c(C(=O)O)cn(C3CC3)c12 [Compound 32, 1-Cyclopropyl-7-(3,4-dihydroisoquinolin-2(1H)-yl)-6-fluoro-8-methyl-4-oxo-1,4-dihydroquinoline-3-carboxylic acid] | 90.7 ± 30.9 µM | 25 ± 6.04 µM | –
CCn1cc(C(=O)O)c(=O)c2cc(F)c(N3CCNCC3)nc21 [Enoxacin, enoxacin, reference compound] | 216 ± 123 µM | 125 µM | miR-21 level in HeLa cells (miR-21): Upregulation of miR-21; miRNA enhancing effect: Renilla luciferase activity, psi-R21 construct (miR-21-5p biogenesis): miRNA enhancing effect; GI50 (OVCA433): 118 ± 8.89 µM; GI50 (A2780): 142 ± 8.73 µM; RNAi enhancing effect (GAPDH mRNA decrease) [2]: comparable; GI50 [3]: ~125 µM and 125 µM
O=C(O)c1cn(C2CC2)c2cc(N3CCNCC3)c(F)cc2c1=O [ciprofloxacin] | – | – | RNAi enhancer / SMER effect (miRNA processing / RNAi): very weak SMER
N.N.[Cl][Pt][Cl] [cisplatin, reference compound] | – | – | resistance of A2780 CIS to cisplatin compared to A2780 [4]: significantly greater resistance to cisplatin
CC1COc2c(N3CCN(C)CC3)c(F)cc3c(=O)c(C(=O)O)cn1c23 (centres unmarked) [ofloxacin] | – | – | RNAi enhancer / SMER effect (miRNA processing / RNAi): did not show any significant RNAi enhancer effect
